Patent US20260042764A1, “COMPOSITIONS AND METHODS FOR INHIBITION OF KRAS” (TheRas, Inc., priority 2022, published 2026)

Molecular target: T1, Avi-KRAS G12D (2-169) GTP/RAF1 RBD-3xFLAG (51-131) (Homo sapiens, UniProt P01116, G12D)
T1 construct: Avi-KRAS G12D (2-169)
Test: Raf1-KRAS G12D-GTP disruption HTRF assay (Biological Example 3)
Assay type: binding
Details: KRAS G12D, GTP-loaded
Procedure, shortened: (§1)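 50 nM Avi-KRAS (2-169) GTP/RAF1 RBD complex; 75 nM RBD-Avi; pH 7.5 Tris buffer, 10% DMSO; cpd 30 μM top, 3x, 10 pts; 1 h RT, 700 rpm; HTRF, % of DMSO.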

T1 sequence (P01116 2-169 isoform P01116-2 G12D): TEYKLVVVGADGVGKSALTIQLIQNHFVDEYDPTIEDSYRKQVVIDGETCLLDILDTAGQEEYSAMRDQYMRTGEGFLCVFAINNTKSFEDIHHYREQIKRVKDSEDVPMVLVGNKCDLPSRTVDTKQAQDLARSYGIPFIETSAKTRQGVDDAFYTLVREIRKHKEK

SMILES	IC50
CCN(c1nc(OC[C@@]23CCCN2C[C@H](F)C3)nc2c(F)c(-c3ccc(F)c4sc(N)c(C#N)c34)c(C(F)(F)F)cc12)[C@H]1CCN(C(=O)C2C[C@@H]2F)[C@@H]1C (stereo partly drawn) [Compound 883]	100 to 1000 nM
CCN(c1nc(OC[C@@]23CCCN2C[C@H](F)C3)nc2c(F)c(-c3ccc(F)c4sc(N)c(C#N)c34)c(C(F)(F)F)cc12)[C@H]1C[C@H](C)N(C(=O)C2C[C@H]2F)C1 (stereo partly drawn) [Compound 884]	100 to 1000 nM
CCN(c1nc(OC[C@@]23CCCN2C[C@H](F)C3)nc2c(F)c(-c3ccc(F)c4sc(N)c(C#N)c34)c(C(F)(F)F)cc12)[C@H]1C[C@H](C)N(C(=O)C2C[C@@H]2F)C1 (stereo partly drawn) [Compound 886]	100 to 1000 nM
CCN(c1nc(OC[C@@]23CCCN2C[C@H](F)C3)nc2c(F)c(-c3ccc(F)c4sc(N)c(C#N)c34)c(C(F)(F)F)cc12)[C@H]1CCN(C(=O)C2CC2(F)F)[C@@H]1C (stereo partly drawn) [Compound 888]	100 to 1000 nM
CCN(c1nc(OC[C@@]23CCCN2C[C@H](F)C3)nc2c(F)c(-c3ccc(F)c4sc(N)c(C#N)c34)c(C(F)(F)F)cc12)[C@H]1C[C@@H](C)N(C(=O)OC2CC(OC)C2)C1 (stereo partly drawn) [Compound 895]	100 to 1000 nM

Molecular target: T2, Avi-KRAS G12C (2-169) GTP/RAF1 RBD-3xFLAG (51-131) (Homo sapiens, UniProt P01116, G12C)
T2 construct: Avi-KRAS G12C (2-169)
Test: Raf1-KRAS G12C-GTP disruption HTRF assay (Biological Example 3)
Assay type: binding
Details: KRAS G12C, GTP-loaded
Procedure, shortened: as §1

T2 sequence (P01116 2-169 isoform P01116-2 G12C): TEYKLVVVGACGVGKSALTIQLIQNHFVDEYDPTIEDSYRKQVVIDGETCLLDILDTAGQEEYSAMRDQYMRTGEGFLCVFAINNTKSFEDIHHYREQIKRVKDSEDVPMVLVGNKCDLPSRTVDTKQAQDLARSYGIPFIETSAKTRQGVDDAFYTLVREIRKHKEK

SMILES	IC50
CCN(c1nc(OC[C@@]23CCCN2C[C@H](F)C3)nc2c(F)c(-c3ccc(F)c4sc(N)c(C#N)c34)c(C(F)(F)F)cc12)[C@H]1CCN(C(=O)C2C[C@@H]2F)[C@@H]1C (stereo partly drawn) [Compound 883]	100 to 1000 nM
CCN(c1nc(OC[C@@]23CCCN2C[C@H](F)C3)nc2c(F)c(-c3ccc(F)c4sc(N)c(C#N)c34)c(C(F)(F)F)cc12)[C@H]1C[C@H](C)N(C(=O)C2C[C@H]2F)C1 (stereo partly drawn) [Compound 884]	≤ 100 nM
CCN(c1nc(OC[C@@]23CCCN2C[C@H](F)C3)nc2c(F)c(-c3ccc(F)c4sc(N)c(C#N)c34)c(C(F)(F)F)cc12)[C@H]1C[C@H](C)N(C(=O)C2C[C@@H]2F)C1 (stereo partly drawn) [Compound 886]	≤ 100 nM
CCN(c1nc(OC[C@@]23CCCN2C[C@H](F)C3)nc2c(F)c(-c3ccc(F)c4sc(N)c(C#N)c34)c(C(F)(F)F)cc12)[C@H]1CCN(C(=O)C2CC2(F)F)[C@@H]1C (stereo partly drawn) [Compound 888]	100 to 1000 nM
CCN(c1nc(OC[C@@]23CCCN2C[C@H](F)C3)nc2c(F)c(-c3ccc(F)c4sc(N)c(C#N)c34)c(C(F)(F)F)cc12)[C@H]1C[C@@H](C)N(C(=O)OC2CC(OC)C2)C1 (stereo partly drawn) [Compound 895]	100 to 1000 nM

Molecular target: T3, Avi-KRAS WT (2-169) GTP/RAF1 RBD-3xFLAG (51-131) (Homo sapiens, UniProt P01116)
T3 construct: Avi-KRAS WT (2-169)
Test: Raf1-KRAS WT-GTP disruption HTRF assay (Biological Example 3)
Assay type: binding
Details: KRAS WT, GTP-loaded
Procedure, shortened: as §1

T3 sequence (P01116 2-169 isoform P01116-2): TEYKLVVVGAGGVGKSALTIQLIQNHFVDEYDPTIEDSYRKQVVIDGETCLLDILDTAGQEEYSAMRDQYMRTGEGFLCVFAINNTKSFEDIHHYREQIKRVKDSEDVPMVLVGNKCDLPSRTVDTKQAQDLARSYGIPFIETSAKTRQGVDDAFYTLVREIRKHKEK

SMILES	IC50
CCN(c1nc(OC[C@@]23CCCN2C[C@H](F)C3)nc2c(F)c(-c3ccc(F)c4sc(N)c(C#N)c34)c(C(F)(F)F)cc12)[C@H]1CCN(C(=O)C2C[C@@H]2F)[C@@H]1C (stereo partly drawn) [Compound 883]	100 to 1000 nM
CCN(c1nc(OC[C@@]23CCCN2C[C@H](F)C3)nc2c(F)c(-c3ccc(F)c4sc(N)c(C#N)c34)c(C(F)(F)F)cc12)[C@H]1C[C@H](C)N(C(=O)C2C[C@H]2F)C1 (stereo partly drawn) [Compound 884]	100 to 1000 nM
CCN(c1nc(OC[C@@]23CCCN2C[C@H](F)C3)nc2c(F)c(-c3ccc(F)c4sc(N)c(C#N)c34)c(C(F)(F)F)cc12)[C@H]1C[C@H](C)N(C(=O)C2C[C@@H]2F)C1 (stereo partly drawn) [Compound 886]	100 to 1000 nM
CCN(c1nc(OC[C@@]23CCCN2C[C@H](F)C3)nc2c(F)c(-c3ccc(F)c4sc(N)c(C#N)c34)c(C(F)(F)F)cc12)[C@H]1CCN(C(=O)C2CC2(F)F)[C@@H]1C (stereo partly drawn) [Compound 888]	100 to 1000 nM
CCN(c1nc(OC[C@@]23CCCN2C[C@H](F)C3)nc2c(F)c(-c3ccc(F)c4sc(N)c(C#N)c34)c(C(F)(F)F)cc12)[C@H]1C[C@@H](C)N(C(=O)OC2CC(OC)C2)C1 (stereo partly drawn) [Compound 895]	1000 to 10000 nM

Molecular target: T4, Avi-KRAS G12V (2-169) GTP/RAF1 RBD-3xFLAG (51-131) (Homo sapiens, UniProt P01116, G12V)
T4 construct: Avi-KRAS G12V (2-169)
Test: Raf1-KRAS G12V-GTP disruption HTRF assay (Biological Example 3)
Assay type: binding
Details: KRAS G12V, GTP-loaded
Procedure, shortened: as §1

T4 sequence (P01116 2-169 isoform P01116-2 G12V): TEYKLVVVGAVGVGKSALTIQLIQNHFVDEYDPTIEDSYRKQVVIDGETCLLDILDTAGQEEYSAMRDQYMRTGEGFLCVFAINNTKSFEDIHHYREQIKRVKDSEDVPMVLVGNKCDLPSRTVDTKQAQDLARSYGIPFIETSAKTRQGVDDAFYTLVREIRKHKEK

SMILES	IC50
CCN(c1nc(OC[C@@]23CCCN2C[C@H](F)C3)nc2c(F)c(-c3ccc(F)c4sc(N)c(C#N)c34)c(C(F)(F)F)cc12)[C@H]1CCN(C(=O)C2C[C@@H]2F)[C@@H]1C (stereo partly drawn) [Compound 883]	100 to 1000 nM
CCN(c1nc(OC[C@@]23CCCN2C[C@H](F)C3)nc2c(F)c(-c3ccc(F)c4sc(N)c(C#N)c34)c(C(F)(F)F)cc12)[C@H]1C[C@H](C)N(C(=O)C2C[C@H]2F)C1 (stereo partly drawn) [Compound 884]	≤ 100 nM
CCN(c1nc(OC[C@@]23CCCN2C[C@H](F)C3)nc2c(F)c(-c3ccc(F)c4sc(N)c(C#N)c34)c(C(F)(F)F)cc12)[C@H]1C[C@H](C)N(C(=O)C2C[C@@H]2F)C1 (stereo partly drawn) [Compound 886]	≤ 100 nM
CCN(c1nc(OC[C@@]23CCCN2C[C@H](F)C3)nc2c(F)c(-c3ccc(F)c4sc(N)c(C#N)c34)c(C(F)(F)F)cc12)[C@H]1CCN(C(=O)C2CC2(F)F)[C@@H]1C (stereo partly drawn) [Compound 888]	100 to 1000 nM
CCN(c1nc(OC[C@@]23CCCN2C[C@H](F)C3)nc2c(F)c(-c3ccc(F)c4sc(N)c(C#N)c34)c(C(F)(F)F)cc12)[C@H]1C[C@@H](C)N(C(=O)OC2CC(OC)C2)C1 (stereo partly drawn) [Compound 895]	100 to 1000 nM

System: GP2d cells (KRAS G12D)
Test: Cell-based pERK HTRF assay in GP2d cell (Biological Example 2)
Details: GP2d, GP2d (KRAS G12D) cells
Procedure, shortened: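 Treatment with test compounds lasted one hour in DMEM containing 10% FBS, with DMSO held at 0.25%. Dilution series: 9 points, half-log spacing, highest 1 μM or 100 nM. Lysates were incubated 4–24 h at room temperature with antibody mix, then HTRF was read at 320 nm excitation.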

SMILES	IC50
CCN(c1nc(OC[C@@]23CCCN2C[C@H](F)C3)nc2c(F)c(-c3ccc(F)c4sc(N)c(C#N)c34)c(C(F)(F)F)cc12)[C@H]1CCN(C(=O)C2C[C@@H]2F)[C@@H]1C (stereo partly drawn) [Compound 883]	< 100 nM
CCN(c1nc(OC[C@@]23CCCN2C[C@H](F)C3)nc2c(F)c(-c3ccc(F)c4sc(N)c(C#N)c34)c(C(F)(F)F)cc12)[C@H]1C[C@H](C)N(C(=O)C2C[C@H]2F)C1 (stereo partly drawn) [Compound 884]	< 100 nM
CCN(c1nc(OC[C@@]23CCCN2C[C@H](F)C3)nc2c(F)c(-c3ccc(F)c4sc(N)c(C#N)c34)c(C(F)(F)F)cc12)[C@H]1C[C@H](C)N(C(=O)C2C[C@@H]2F)C1 (stereo partly drawn) [Compound 886]	< 100 nM
CCN(c1nc(OC[C@@]23CCCN2C[C@H](F)C3)nc2c(F)c(-c3ccc(F)c4sc(N)c(C#N)c34)c(C(F)(F)F)cc12)[C@H]1CCN(C(=O)C2CC2(F)F)[C@@H]1C (stereo partly drawn) [Compound 888]	< 100 nM
CCN(c1nc(OC[C@@]23CCCN2C[C@H](F)C3)nc2c(F)c(-c3ccc(F)c4sc(N)c(C#N)c34)c(C(F)(F)F)cc12)[C@H]1C[C@@H](C)N(C(=O)OC2CC(OC)C2)C1 (stereo partly drawn) [Compound 895]	< 100 nM

System: SW620 cells (KRAS G12V)
Test: Cell-based pERK HTRF assay in SW620 cell (Biological Example 4)
Details: Homo sapiens, SW-620, SW620 (KRAS G12V) cells
Procedure, shortened: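 SW620 cells were treated for 4 h with compound in a 9-point half-log series from 1 μM top (0.25% DMSO), then lysed. Phospho-ERK was detected by HTRF with d2 and Eu cryptate antibodies after 4–24 h at room temperature, read at 615 nm emission.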

SMILES	IC50
CCN(c1nc(OC[C@@]23CCCN2C[C@H](F)C3)nc2c(F)c(-c3ccc(F)c4sc(N)c(C#N)c34)c(C(F)(F)F)cc12)[C@H]1CCN(C(=O)C2C[C@@H]2F)[C@@H]1C (stereo partly drawn) [Compound 883]	< 100 nM
CCN(c1nc(OC[C@@]23CCCN2C[C@H](F)C3)nc2c(F)c(-c3ccc(F)c4sc(N)c(C#N)c34)c(C(F)(F)F)cc12)[C@H]1C[C@H](C)N(C(=O)C2C[C@H]2F)C1 (stereo partly drawn) [Compound 884]	< 100 nM
CCN(c1nc(OC[C@@]23CCCN2C[C@H](F)C3)nc2c(F)c(-c3ccc(F)c4sc(N)c(C#N)c34)c(C(F)(F)F)cc12)[C@H]1C[C@H](C)N(C(=O)C2C[C@@H]2F)C1 (stereo partly drawn) [Compound 886]	< 100 nM
CCN(c1nc(OC[C@@]23CCCN2C[C@H](F)C3)nc2c(F)c(-c3ccc(F)c4sc(N)c(C#N)c34)c(C(F)(F)F)cc12)[C@H]1CCN(C(=O)C2CC2(F)F)[C@@H]1C (stereo partly drawn) [Compound 888]	< 100 nM
CCN(c1nc(OC[C@@]23CCCN2C[C@H](F)C3)nc2c(F)c(-c3ccc(F)c4sc(N)c(C#N)c34)c(C(F)(F)F)cc12)[C@H]1C[C@@H](C)N(C(=O)OC2CC(OC)C2)C1 (stereo partly drawn) [Compound 895]	< 100 nM
